Earlier results, collected in patent US12109217B2, “Bioactive agents included in functionalized starch having a single helix V-structure” (B-ORGANIC FILMS CORP., priority 2014, dated 2024).
Where two headings read alike, the source gives them in different places.

How the values were obtained:
[1] = in vivo

For `C[C@@H]1CC[C@H]2[C@@H](C)C(=O)O[C@@H]3O[C@@]4(C)CC[C@@H]1[C@]32OO4` [Artemisinin], the oral bioavailability [1] is given as “about 30%”.
In the case of `COC(=O)[C@H](c1ccccc1Cl)N1CCc2sccc2C1` [Clopidogrel bisulfate], the solubility in water (neutral pH) is given as “insoluble in water” and the solubility (pH 1-2 (similar to gastric pH)) is given as “freely soluble”.
In the case of `CC(=O)O[C@H]1C(=O)[C@@]2(C)[C@H]([C@H](OC(=O)c3ccccc3)[C@]3(O)C[C@H](OC(=O)[C@H](O)[C@@H](NC(=O)c4ccccc4)c4ccccc4)C(C)=C1C3(C)C)[C@]1(OC(C)=O)CO[C@@H]1C[C@@H]2O` [Paclitaxel], the solubility (water / aqueous medium (and oil where stated)) is given as “poorly soluble in aqueous medium”.
